Assay results published in US7205316B2, “Tri- and bi-cyclic heteroaryl histamine-3 receptor ligands” (Abbott Laboratories, priority 2004, dated 2007).
Counter-ions that a name gives are not always drawn.

Cc1nc2cc(-c3ccc4nc(CCN5CCC[C@H]5C)ccc4c3)ccc2s1 (as salt: hydrochloride) [Example 14, 6-(2-Methyl-benzothiazol-5-yl)-2-[2-(2R-methyl-pyrrolidin-1-yl)-ethyl]-quinoline]
melting point: 182 to 183 °C
